Measurements reported in patent publication US4568666A, “Carboxylalkyl peptide derivatives” (G. D. Searle & Co., priority 1984, dated 1986).

Experiments:
[1] = system: rat model of inflammatory arthritis; assay: Rat model of inflammatory arthritis induced by Type II collagen (Trentham et al.); assay type: in vivo; settings: prednisolone 0.625 mg/kg b.i.d.
Procedure: The therapeutic effectivness is assessed in the rat model of inflammatory arthritis described by Trentham et al. (1977). In this model, the arthritis, induced by an intradermal injection of Type II collagen, generally develops in both hind paws and the progression and severity of the lesion are monitored by physical measurements of the malleolar width and ankle extensibility.
The compound of Example II in the present specification was administered by intraperitoneal injections at 100 mg/kg twice daily for 21 days commencing seven days after the injection of the disease.
Drugs (Example 11 or prednisolone) and vehicle were administered to groups of 10 rats each. Physical measurements on the rat paws were made weekly for four weeks and consisted of (a) the distance between the medial and lateral malleolus (malleolar width) and (b) the ankle extension which was measured by applying a standard force to th rat paw and measuring the angle formed between the flexor surface of the foot and the tibia. Evidence of a therapeutic effect was denoted by a significant reduction in malleolar width and a significant increase in ankle extension. Both measurements were carried out in apparatus designed for the purpose. Area-under-the-curve data from these time course experiments was examinaed by non-parametic statistical analysis. The prednisolone standard was given at a dose of 0.625 mg/kg b.i.d. Prednisolone was chosen as a standard since steroids are known to be effective both clinically in Rheumatoid Arthritis and in animal models of arthritis.

[2] = biological target: T1, Human Rheumatoid Synovial Collagenase (Homo sapiens, UniProt P03956); assay: Collagenase inhibition (procedure of Cawston and Barrett, acetyl 14C collagen); assay type: biochemical; settings: 37° C., 16 hours, native acetyl 14C collagen, Tris HCl-CaCl2 pH 7.6
T1 construct: from tissue
T1 sequence (P03956 100-469): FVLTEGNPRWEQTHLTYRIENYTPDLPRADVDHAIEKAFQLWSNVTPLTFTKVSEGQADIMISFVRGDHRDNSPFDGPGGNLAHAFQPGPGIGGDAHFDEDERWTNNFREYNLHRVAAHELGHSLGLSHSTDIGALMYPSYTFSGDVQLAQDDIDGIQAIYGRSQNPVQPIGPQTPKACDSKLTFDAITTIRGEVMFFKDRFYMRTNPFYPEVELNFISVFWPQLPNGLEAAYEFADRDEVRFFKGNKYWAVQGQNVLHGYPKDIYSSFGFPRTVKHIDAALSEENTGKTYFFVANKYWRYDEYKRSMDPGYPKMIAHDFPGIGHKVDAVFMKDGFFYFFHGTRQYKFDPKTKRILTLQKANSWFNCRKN
Procedure: This was determined following the procedure of Cawston and Barrett, Anal. Biochem., 99, 340-345 (1979) whereby the 1 mM of the inhibitor being tested or dilutions thereof are incubated at 37° C. for 16 hours with native collagen and collagenase (buffered with Tris HCl--CaCl2; pH 7.6). The collagen is acetyl ^14 C collagen. The samples are centrifuged to sediment undigested collagen and an aliquot of the radiactive supernatant removed for assay on a scintillation counter as a measure of hydrolysis. The collagenase activity in the presence of 1 mM inhibitor, or a dilution thereof, is compared to activity in a control devoid of inhibitor and the results reported as that inhibitor concentration effecting 50% inhibition of the collagenase.

[3] = arthritic rats' paws, Example 11 100 mg/kg i.p. twice daily for 21 days, area-under-the-curve data
[4] = mean of experiments 1-3, Example 11 100 mg/kg i.p. twice daily

Row | SMILES | Ankle extension, percentage change from control, experiment number 1 [1, 3] [%] | Ankle extension, percentage change from control, experiment number 2 [1, 3] [%] | Ankle extension, percentage change from control, experiment number 3 [1, 3] [%] | Malleolar width, percentage change from control, experiment number 1 [1, 3] [%] | Malleolar width, percentage change from control, experiment number 2 [1, 3] [%] | Malleolar width, percentage change from control, experiment number 3 [1, 3] [%] | Ankle extension, percentage change from control, mean [1, 4] [%] | IC50 [2] [µM] | Malleolar width, percentage change from control, mean [1, 4] [%]
1 | CNC(=O)[C@H](Cc1ccc(OC)cc1)NC(=O)[C@H](CC(C)C)N[C@H](CCNC(=O)OCc1ccccc1)C(=O)O [Example 11, N-[3-N-(Benzyloxycarbonyl)amino-1-(R)-carboxypropyl]-L-leucyl-O-methyl-L-tyrosine N-Methylamide] | 66 | 39 | 39 | 65 | 43 | 41 | 48 | 0.8 | 
2 | C[C@]12C=CC(=O)C=C1CC[C@@H]1[C@@H]2[C@@H](O)C[C@@]2(C)[C@H]1CC[C@]2(O)C(=O)CO [Prednisolone, prednisolone, reference compound] |  | 96 | 95 | 98 | 96 | 97 | 97 |  | 97
